Source: patent publication US20230192764A1, “NOVEL DOPAMINE PRECURSORS” (Yissum Research Development Company of the Hebrew …, priority 2018, published 2023)
Where “and” joins values, the source holds several entries; their conditions need not be identical. Equal values may be shown once.

Columns and labels:
p38MAPK phosphorylation = test: AuF-induced phosphorylation of p38MAPK in SH-SY5Y cells, western blot; type: cell-based, human; conditions: summary statement
Procedure: Cells were treated with 10 µM AuF with or without SD-444. Phosphorylation was determined by western blot analysis. The amount of each band was quantitated by densitometry and plotted with a linear regression program normalized with β catenin (b-cat).
In the assay, twenty to thirty micrograms of protein samples were loaded on 10-12% SDS-PAGE gels. The proteins were then transferred electrophoretically to nitrocellulose (Whatman, Germany). The blots were blocked by incubation for 1 h at RT in TBS-T (25 mM Tris-HCl pH 7.4, 0.9% NaCl and 0.02% Tween-20) with 4% Difco skim milk (BD, USA), and incubated over-night at 4° C. with the primary antibody: p-p38^MAPK (Thr180/Tyr182), rabbit mAb; p38, rabbit Ab.

PC12 cells = test: Phase microscopy of AuF-induced morphological changes in PC12 cells; type: cell-based; conditions: 2 µM AuF 30 min, washed, 150 µM SDA, 37° C., 4 hrs; listed as SDA
Procedure: PC12 cells were treated with AuF with or without SD-444. Morphological changes were visualized 4 hr later (magnification x200).
(FIG. 7A) Control untreated PC12 cells (FIG. 7B). PC12 cells were treated with AuF (2 µM; 30 min) lose their morphology and become rounded, as compared to untreated cells. […] Cells were treated with AuF (2 µM) for 30 min, washed and then SDA was added at 25 µM or 100 µM. Cells were visualized 4 hr later (magnification, 100 × and 400 x).
C) Phase microscopy studies: The ability of SD-444 to rescue cells from oxidative stress was tested by exposing the PC12 to 2 µM auranofin for 30 min, and after washing incubated with 250 µM SD-444 at 37° C. for additional 4 hrs.
B) Phase microscopy studies: The ability of SDA to rescue the cells from oxidative stress was tested by exposing the PC12 to auranofin 2 µM for 30 min with or without 150 µM SDA. AuF was washed after 30 min and 150 µM SDA was added and allowed to incubate at 37° C. for additional 4 hrs.

ERK1/2 phosphorylation = test: AuF-induced phosphorylation of ERK1/2 in PC12 cells, western blot; type: cell-based; conditions: 10 µM AuF, normalized to total ERK2, read-out: EC50, lowering of AuF induced activation of ERK1/2
Procedure: Cells were treated with 10 µM AuF with or without SDA-341. Phosphorylation was determined by western blot analysis (FIG. 6A). The amount of each band was quantitated by densitometry (FIG. 6B) and plotted with a linear regression program normalized to total ERK2 (FIG. 6C).
The ability of SDA-341 to lower AuF induced activation of ERK1/2 in PC12 cells with the corresponding anti ERK1/2 and ERK2 antibodies was also tested, as shown in FIG. 6. Calculated EC50=80µM.

[1] = system: Rotenone -induced model of Parkinson's disease (PD) in rats; test: Rotarod behavior assay, rotenone model; type: in vivo, Sprague Dawley rats; conditions: for R.R (rotarod): individual rat, listed as SDA
Procedure: (§1) 1-SD (Rotenone + SD); 2 - SDA (Rotenone + SDA); 3 - Control (Rotenone); 4 -Naive. The experimental groups were comprised of 6 animals for treated groups (1-3) and 2 animals in naive group (4). Rotenone was administrated 3.0 mg/kg intraperitoneally (IP) once a day in the morning (days 1-9). SD 33 mg/kg and SDA 33 mg/kg were administrated intraperitoneally once a day in the afternoon (days 1-9).
(§2) Rearing behavior, rotarod and beam walk tests were performed before initiation of treatment (day 0) as well as on days 4, 8 and 10 of the experiment.
(§3) IP administration: Rotenone was administrated to groups 1-3. Rotenone was injected intraperitoneally at a dose 3.0 mg/kg once a day in the morning (days 1-9). SD and SDA was administrated both at a dose of 33 mg/kg and were injected intraperitoneally once a day in the afternoon (days 1-9). Group number 4 was untreated, and remained as a naive group.
The test was used to evaluate motor coordination and balance. Apparatus was set to accelerate from 4 to 40 rpm in 300 s, and animals from same cage are placed in separate lanes on rod initially rotating at 4 rpm.

[2] = Body weight monitoring in rotenone-treated rats; type: in vivo, Sprague Dawley rats; conditions: for Weight: individual rat, listed as SDA
Procedure: as §1
Animals weight was measured before initiation of treatment (day 0), on days 4,7, 9 during the experiment and on termination day 11. On day 11, animals were sacrificed and brains were harvested for further histopathological analysis.
as §3

[3] = system: human neuroblastoma cells (SH-SY5Y); test: Viability of SH-SY5Y cells after auranofin (AuF) challenge, methylene blue staining; type: cell-based; conditions: SH-SY5Y pre-treated with 5 µM AuF 30 min, washed, compound added, viability 24 h later
Procedure: Viability of cells pre-treated with 5 µM AuF for 30 min, washed and later exposed to increasing concentrations of SD-444, was determined 24 h later.
A) The anti-apoptotic activity of SD-444 was tested on human neuronal cells SH-SY5Y. The cells were challenged by auranofin (AuF) that induces cellular stress by selectively blocking the thioredoxin reductase activity.
SH-SY5Y cells were plated on 96-well plates and treated with AuF in different concentrations for 30 min. Then the cells were washed with PBS and treated as indicated. Twenty-four hours later, the cells were fixed with glutaraldehyde in final concentration of 0.5% for 10 min. Cells were washed 3 times with DDW dried overnight, and washed once with borate buffer (0.1 M, pH 8.5). The fixed cells were stained with 200 µl of 1% methylene blue dissolved in borate buffer for 1 h. After extensive washing and drying, the color was extracted with 200 µl of 0.1 M HCl for 1 h at 37° C. and absorbance was read in spectrophotometer at 630 nm.

[4] = system: Rotenone -induced model of Parkinson's disease (PD) in rats; test: Rat beam walk test, rotenone model; type: in vivo, Sprague Dawley rats; conditions: for beam end time: individual rat, listed as SDA
Procedure: as §1, §2, §3
Animals were gently placed on 1 m long narrow aluminum beam facing one of the ends and allowed to walk to the end of the beam.

[5] = average n=6, day 0 (before treatment)
[6] = day 0 (before treatment), rotenone 3 mg/kg + compound 33 mg/kg IP
[7] = rats, rotenone 3.0 mg/kg IP + compound 33 mg/kg IP, days 1-9

In the case of `CC(=O)NC(CS)C(=O)NC(Cc1cccc(O)c1O)C(N)=O` (centres unmarked) [SDA-341, Acetyle-Cys-2,3 dihydroxyphenylalanine-amide], the “p38 phosphorylation (AuF-triggered)” value (p38MAPK phosphorylation) is reported as “inhibit”, the “morphology of AuF-treated PC12 cells” value (PC12 cells) is reported as “normal morphology” and the EC50 (ERK1/2 phosphorylation) is reported as 80 µM. The “R.R (rotarod), group average” value [1, 5] was 285.17 s, the “R.R (rotarod), group average” value ([1]; average n=6, day 4) was 286.33 s and the “R.R (rotarod), group average” value ([1]; average n=6, day 8) was 266.33 s. For the same compound, the “R.R (rotarod), group average” value ([1]; average n=6, day 10) was 227.00 s, the “R.R (rotarod)” value [1, 6] was 278 sec and 300 sec (2×) and 269 sec and 290 sec and the “R.R (rotarod)” value ([1]; day 4) was 298 sec and 274 sec and 263 sec and 300 sec (2×) and 283 sec. For the same compound, the “R.R (rotarod)” value ([1]; day 8) was 281 s and 249 s and 234 s and 277 s and 268 s and 289 s, the “R.R (rotarod)” value ([1]; day 10) was 270 s and 195 s and 123 s and 260 s and 243 s and 271 s and the “rotarod test, motor dysregulation mediated by rotenone” value [1, 7] was “significantly reversed”. For the same compound, the “Weight, group average” value [2, 5] was 304.33 gr, the “Weight, group average” value ([2]; average n=6, day 4) was 294.17 gr and the “Weight, group average” value ([2]; average n=6, day 7) was 284.33 gr. For the same compound, the “Weight, group average” value ([2]; average n=6, day 9) was 275.50 gr, the “Weight, group average” value ([2]; average n=6, day 11) was 271.33 gr and the Weight [2, 6] was 292 gr and 307 gr (2×) and 305 gr and 315 gr and 300 gr. The Weight ([2]; day 4, rotenone 3 mg/kg + compound 33 mg/kg IP) was 284 gr and 293 gr and 299 gr (2×) and 294 gr and 296 gr, the Weight ([2]; day 7, rotenone 3 mg/kg + compound 33 mg/kg IP) was 274 gr and 283 gr (2×) and 287 gr and 288 gr and 291 gr and the Weight ([2]; day 9, rotenone 3 mg/kg + compound 33 mg/kg IP) was 275 gr and 272 gr and 267 gr and 274 gr and 281 gr and 284 gr. The Weight ([2]; day 11, rotenone 3 mg/kg + compound 33 mg/kg IP) was 272 gr and 261 gr and 269 gr and 266 gr and 283 gr and 277 gr, the “neuronal cell-viability after AuF” value [3] was “increase viability” and the “beam end time, group average” value [4, 5] was 9.50 s. The “beam end time, group average” value ([4]; average n=6, day 4) was 17.50 s, the “beam end time, group average” value ([4]; average n=6, day 8) was 25.67 s and the “beam end time, group average” value ([4]; average n=6, day 10) was 20.33 s. For the same compound, the beam end time [4, 6] was 7 s and 3 s and 10 s and 8 s and 12 s and 17 s, the beam end time ([4]; day 4) was 12 s and 32 s and 14 s and 21 s and 10 s and 16 s and the beam end time ([4]; day 8) was 16 s and 23 s and 52 s and 18 s and 19 s and 26 s. The beam end time ([4]; day 10) was 22 s and 17 s and 34 s and 10 s and 21 s and 18 s and the “Walk-beam test, reversal of rotenone induced imbalance” value [4, 7] was “very effective”.
